Assay [1] has as its target T1, Beta-secretase 1 (Homo sapiens, UniProt P56817). Briefly: Binding affinity to BACE1 by surface plasmon resonance method.
The target of assay [2] is T1, Beta-secretase 1. Briefly: Binding affinity to BACE1 by NMR-based differential chemical shift perturbation method.

pKd: −log10 of the molar value.

T1 sequence (P56817 whole entry): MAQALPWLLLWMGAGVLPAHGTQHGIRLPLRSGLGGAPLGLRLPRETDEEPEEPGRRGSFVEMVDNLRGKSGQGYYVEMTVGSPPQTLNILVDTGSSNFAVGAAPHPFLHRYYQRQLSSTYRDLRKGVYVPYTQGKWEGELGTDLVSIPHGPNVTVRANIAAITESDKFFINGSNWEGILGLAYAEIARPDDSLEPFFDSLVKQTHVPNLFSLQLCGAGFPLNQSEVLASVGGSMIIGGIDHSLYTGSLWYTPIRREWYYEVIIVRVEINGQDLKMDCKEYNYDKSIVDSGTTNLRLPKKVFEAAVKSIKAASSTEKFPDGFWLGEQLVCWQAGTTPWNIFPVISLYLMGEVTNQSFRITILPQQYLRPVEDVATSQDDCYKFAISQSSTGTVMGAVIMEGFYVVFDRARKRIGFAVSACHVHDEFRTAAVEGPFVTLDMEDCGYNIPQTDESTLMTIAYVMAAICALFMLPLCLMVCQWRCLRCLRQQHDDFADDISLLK

By pKd is commonly meant the Kd on a negative log10 scale, so that one unit is a factor of ten. `Nc1ccc2cc(F)ccc2n1`: the pKd on Beta-secretase 1 [1] is 2.89; at Beta-secretase 1 [2], 3.00. For `NC1=Nc2ccccc2Sc2cccc(F)c21`, the pKd at Beta-secretase 1 [1] was 3.49; at Beta-secretase 1 [2] it was 3.40.

Consider `N=C(N)SCc1c(F)cccc1Cl`, for which the pKd is 3.52 at Beta-secretase 1 [1] and 3.46 at Beta-secretase 1 [2].

For `Fc1cccc(Cl)c1CN1CCNCC1`, the pKd is below 2.70 on Beta-secretase 1 [1] and below 3.00 at Beta-secretase 1 [2]. In turn, `Nc1ccc2cc(C(F)(F)F)ccc2n1` showed a pKd on Beta-secretase 1 [1] of 2.41. As for `Cc1cc(N)nc2ccccc12`, the pKd at Beta-secretase 1 [1] was 2.89. With `Nc1cc(C(F)(F)F)c2ccccc2n1`, the pKd at Beta-secretase 1 [1] was 2.54. In turn, `Nc1ccc2cc(-c3ccccc3F)ccc2n1` showed a pKd at Beta-secretase 1 [1] of 4.41. On to `Nc1ccc2cc(-c3ccccc3C(F)(F)F)ccc2n1`, for which the pKd at Beta-secretase 1 [1] and on Beta-secretase 1 [2] was 3.70 throughout. For `O=C(NC1CCCCC1)C(F)(F)F`, the pKd on Beta-secretase 1 [2] is below 3.00.

As to `Cc1ccc2nc(N)ccc2c1`, the pKd at Beta-secretase 1 [1] is 2.80.

`Fc1cccc(C2NCCc3sccc32)c1` (racemic): the pKd at Beta-secretase 1 [1] was below 2.70; at Beta-secretase 1 [2] it was below 3.00.

Values taken from ChEMBL document CHEMBL2010697, “Fragment based drug discovery: practical implementation based on ¹⁹F NMR spectroscopy” (J Med Chem, 2012).
